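96-well plates; 48 h exposure; 5 concentrations. Endpoints by linear interpolation between flanking doses. Not reached: highest tested concentration assigned. GI50: concentration for 50% inhibition of growth.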 Activity calls are given as the source filed them. Cut-off read from the data, not from the text of the source: active = GI50 up to about 1.1 µM and inactive = higher.
Legend:
Assay in all cases: NCI tumour cell line growth inhibition, 48 h
MDA-MB-435 = test system: MDA-MB-435
SK-OV-3 = test system: SK-OV-3
UACC-62 = test system: UACC-62
UACC-257 = test system: UACC-257
OVCAR-5 = test system: OVCAR-5
LOX IMVI = test system: LOX IMVI
HOP-62 = test system: HOP-62
OVCAR-4 = test system: OVCAR-4
SW-620 = test system: SW-620
MDA-N = test system: MDA-N
OVCAR-8 = test system: OVCAR-8
K562 = test system: K562
COLO 205 = test system: COLO 205
NCI-H226 = test system: NCI-H226
CAKI-1 = test system: CAKI-1
Malme-3M = test system: Malme-3M
EKVX = test system: EKVX
T47D = test system: T47D
DU-145 = test system: DU-145
786-0 = test system: 786-0
SF-295 = test system: SF-295
MOLT-4 = test system: MOLT-4
RXF 393 = test system: RXF 393
SK-MEL-28 = test system: SK-MEL-28
PC-3 = test system: PC-3
NCI-H23 = test system: NCI-H23
SK-MEL-5 = test system: SK-MEL-5
MCF7 = test system: MCF7
HCT-116 = test system: HCT-116
SNB-19 = test system: SNB-19
NCI-H522 = test system: NCI-H522
OVCAR-3 = test system: OVCAR-3
SF-268 = test system: SF-268
HCC 2998 = test system: HCC 2998
KM12 = test system: KM12
NCI/ADR-RES = test system: NCI/ADR-RES
ACHN = test system: ACHN
CCRF-CEM = test system: CCRF-CEM
MDA-MB-231 = test system: MDA-MB-231
HCT-15 = test system: HCT-15
IGROV-1 = test system: IGROV-1
SF-539 = test system: SF-539
UO-31 = test system: UO-31
HT-29 = test system: HT-29
M14 = test system: M14
SN12C = test system: SN12C
HOP-92 = test system: HOP-92
U-251 = test system: U-251
NCI-H460 = test system: NCI-H460
SR = test system: SR
A549 = test system: A549
A498 = test system: A498
SK-MEL-2 = test system: SK-MEL-2
RPMI-8226 = test system: RPMI-8226
TK-10 = test system: TK-10
SNB-75 = test system: SNB-75
Hs-578T = test system: Hs-578T

Question: With `COC1CC(n2ccc(=O)[nH]c2=O)OC1CO` (stereo unspecified) as the compound, how does the GI50 (MDA-MB-435) read?
Answer: > 100 µM (inactive)

Question: What about the GI50 (SK-OV-3) of the same compound?
Answer: > 100 µM (inactive)

Question: And the GI50 (UACC-62)?
Answer: > 100 µM (inactive)

Question: And the GI50 (UACC-257)?
Answer: > 100 µM (inactive)

Question: What about the GI50 (OVCAR-5) of the same compound?
Answer: > 100 µM (inactive)

Question: What about the GI50 (LOX IMVI) of the same compound?
Answer: > 100 µM (inactive)

Question: And the GI50 (HOP-62)?
Answer: > 100 µM (inactive)

Question: And the GI50 (OVCAR-4)?
Answer: > 100 µM (inactive)

Question: What about the GI50 (SW-620) of the same compound?
Answer: > 100 µM (inactive)

Question: And the GI50 (MDA-N)?
Answer: > 100 µM (inactive)

Question: What about the GI50 (OVCAR-8) of the same compound?
Answer: > 100 µM (inactive)

Question: What about the GI50 (K562) of the same compound?
Answer: > 100 µM (inactive)

Question: What about the GI50 (COLO 205) of the same compound?
Answer: > 100 µM (inactive)

Question: What about the GI50 (NCI-H226) of the same compound?
Answer: > 100 µM (inactive)

Question: And the GI50 (CAKI-1)?
Answer: > 100 µM (inactive)

Question: And the GI50 (Malme-3M)?
Answer: > 100 µM (inactive)

Question: What about the GI50 (EKVX) of the same compound?
Answer: > 100 µM (inactive)

Question: And the GI50 (T47D)?
Answer: > 100 µM (inactive)

Question: What about the GI50 (DU-145) of the same compound?
Answer: > 100 µM (inactive)

Question: And the GI50 (786-0)?
Answer: > 100 µM (inactive)

Question: What about the GI50 (SF-295) of the same compound?
Answer: > 100 µM (inactive)

Question: And the GI50 (MOLT-4)?
Answer: > 100 µM (inactive)

Question: What about the GI50 (RXF 393) of the same compound?
Answer: > 100 µM (inactive)

Question: What about the GI50 (SK-MEL-28) of the same compound?
Answer: > 100 µM (inactive)

Question: And the GI50 (PC-3)?
Answer: > 100 µM (inactive)

Question: What about the GI50 (NCI-H23) of the same compound?
Answer: > 100 µM (inactive)

Question: And the GI50 (SK-MEL-5)?
Answer: > 100 µM (inactive)

Question: And the GI50 (MCF7)?
Answer: < 0.01 µM (active)

Question: What about the GI50 (HCT-116) of the same compound?
Answer: > 100 µM (inactive)

Question: What about the GI50 (SNB-19) of the same compound?
Answer: > 100 µM (inactive)

Question: What about the GI50 (NCI-H522) of the same compound?
Answer: > 100 µM (inactive)

Question: What about the GI50 (OVCAR-3) of the same compound?
Answer: > 100 µM (inactive)

Question: What about the GI50 (SF-268) of the same compound?
Answer: > 100 µM (inactive)

Question: What about the GI50 (HCC 2998) of the same compound?
Answer: > 100 µM (inactive)

Question: What about the GI50 (KM12) of the same compound?
Answer: > 100 µM (inactive)

Question: What about the GI50 (NCI/ADR-RES) of the same compound?
Answer: > 100 µM (inactive)

Question: And the GI50 (ACHN)?
Answer: > 100 µM (inactive)

Question: What about the GI50 (CCRF-CEM) of the same compound?
Answer: > 100 µM (inactive)

Question: And the GI50 (MDA-MB-231)?
Answer: > 100 µM (inactive)

Question: What about the GI50 (HCT-15) of the same compound?
Answer: > 100 µM

Question: And the GI50 (IGROV-1)?
Answer: > 100 µM (inactive)

Question: What about the GI50 (SF-539) of the same compound?
Answer: > 100 µM (inactive)

Question: What about the GI50 (UO-31) of the same compound?
Answer: > 100 µM (inactive)

Question: And the GI50 (HT-29)?
Answer: > 100 µM (inactive)

Question: What about the GI50 (M14) of the same compound?
Answer: > 100 µM (inactive)

Question: What about the GI50 (SN12C) of the same compound?
Answer: > 100 µM (inactive)

Question: And the GI50 (HOP-92)?
Answer: > 100 µM (inactive)

Question: And the GI50 (U-251)?
Answer: > 100 µM (inactive)

Question: And the GI50 (NCI-H460)?
Answer: > 100 µM (inactive)

Question: And the GI50 (SR)?
Answer: > 100 µM (inactive)

Question: What about the GI50 (A549) of the same compound?
Answer: > 100 µM (inactive)

Question: What about the GI50 (A498) of the same compound?
Answer: > 100 µM (inactive)

Question: And the GI50 (SK-MEL-2)?
Answer: > 100 µM (inactive)

Question: For `COc1ccc2c(c1)CC[C@@H]1C2CC[C@]2(C)C(=C=CP(=O)(O)O)CCC12` (stereo partly specified), which GI50 (MDA-MB-435) is on record?
Answer: > 100 µM (inactive)

Question: And the GI50 (SK-OV-3)?
Answer: > 100 µM (inactive)

Question: What about the GI50 (UACC-62) of the same compound?
Answer: > 100 µM (inactive)

Question: What about the GI50 (RPMI-8226) of the same compound?
Answer: < 0.01 µM (active)

Question: And the GI50 (TK-10)?
Answer: > 100 µM (inactive)

Question: And the GI50 (UACC-257)?
Answer: > 100 µM (inactive)

Question: And the GI50 (OVCAR-5)?
Answer: > 100 µM (inactive)

Question: And the GI50 (LOX IMVI)?
Answer: > 100 µM (inactive)

Question: What about the GI50 (HOP-62) of the same compound?
Answer: > 100 µM (inactive)

Question: And the GI50 (OVCAR-4)?
Answer: > 100 µM (inactive)

Question: And the GI50 (SW-620)?
Answer: > 100 µM (inactive)

Question: What about the GI50 (MDA-N) of the same compound?
Answer: > 100 µM (inactive)

Question: And the GI50 (OVCAR-8)?
Answer: > 100 µM (inactive)

Question: What about the GI50 (K562) of the same compound?
Answer: > 100 µM (inactive)

Question: What about the GI50 (COLO 205) of the same compound?
Answer: > 100 µM (inactive)

Question: And the GI50 (NCI-H226)?
Answer: > 100 µM (inactive)

Question: What about the GI50 (CAKI-1) of the same compound?
Answer: > 100 µM (inactive)

Question: What about the GI50 (Malme-3M) of the same compound?
Answer: > 100 µM (inactive)

Question: What about the GI50 (EKVX) of the same compound?
Answer: > 100 µM (inactive)

Question: And the GI50 (T47D)?
Answer: > 100 µM (inactive)

Question: What about the GI50 (DU-145) of the same compound?
Answer: > 100 µM (inactive)

Question: And the GI50 (786-0)?
Answer: > 100 µM (inactive)

Question: And the GI50 (SF-295)?
Answer: > 100 µM (inactive)

Question: What about the GI50 (RXF 393) of the same compound?
Answer: > 100 µM (inactive)

Question: What about the GI50 (SK-MEL-28) of the same compound?
Answer: > 100 µM (inactive)

Question: And the GI50 (PC-3)?
Answer: > 100 µM (inactive)

Question: What about the GI50 (NCI-H23) of the same compound?
Answer: > 100 µM (inactive)

Question: What about the GI50 (SK-MEL-5) of the same compound?
Answer: > 100 µM (inactive)

Question: What about the GI50 (MCF7) of the same compound?
Answer: 79.6 µM (inactive)

Question: And the GI50 (HCT-116)?
Answer: > 100 µM (inactive)

Question: What about the GI50 (SNB-19) of the same compound?
Answer: > 100 µM (inactive)

Question: And the GI50 (NCI-H522)?
Answer: > 100 µM (inactive)

Question: What about the GI50 (OVCAR-3) of the same compound?
Answer: > 100 µM (inactive)

Question: And the GI50 (SF-268)?
Answer: > 100 µM (inactive)

Question: What about the GI50 (HCC 2998) of the same compound?
Answer: > 100 µM (inactive)

Question: What about the GI50 (KM12) of the same compound?
Answer: > 100 µM (inactive)

Question: What about the GI50 (NCI/ADR-RES) of the same compound?
Answer: > 100 µM (inactive)

Question: What about the GI50 (ACHN) of the same compound?
Answer: > 100 µM (inactive)

Question: What about the GI50 (HCT-15) of the same compound?
Answer: > 100 µM

Question: What about the GI50 (IGROV-1) of the same compound?
Answer: > 100 µM (inactive)

Question: And the GI50 (SF-539)?
Answer: > 100 µM (inactive)

Question: What about the GI50 (SNB-75) of the same compound?
Answer: > 100 µM (inactive)

Question: And the GI50 (HT-29)?
Answer: > 100 µM (inactive)

Question: And the GI50 (M14)?
Answer: > 100 µM (inactive)

Question: And the GI50 (SN12C)?
Answer: > 100 µM (inactive)

Question: And the GI50 (Hs-578T)?
Answer: > 100 µM (inactive)

Question: And the GI50 (HOP-92)?
Answer: > 100 µM (inactive)

Question: What about the GI50 (U-251) of the same compound?
Answer: > 100 µM (inactive)

Question: And the GI50 (NCI-H460)?
Answer: > 100 µM (inactive)

Question: What about the GI50 (SR) of the same compound?
Answer: 99.5 µM (inactive)

Question: What about the GI50 (A549) of the same compound?
Answer: > 100 µM (inactive)

Question: What about the GI50 (A498) of the same compound?
Answer: > 100 µM (inactive)

Question: What about the GI50 (SK-MEL-2) of the same compound?
Answer: > 100 µM (inactive)
